# Experimental data taken from patent US8415152B2, “Therapeutical composition containing dentritic cells and use thereof” (Helmholtz-Zentrum für Infektionsforschung GmbH, priority 2003, dated 2013).
# B1: DerP1: affinity purified major allergen of the house-dust mite Dermatophagoides pteronyssinus (protein, UniProt P08176 99-320, looked up)
# Peptidase 1: TNACSINGNAPAEIDLRQMRTVTPIRMQGGCGSCWAFSGVAATESAYLAYRNQSLDLAEQELVDCASQHGCHGDTIPRGIEYIQHNGVVQESYYRYVAREQSCRRPNAQRFGISNYCQIYPPNVNKIREALAQTHSAIAVIIGIKDLDAFRHYDGRTIIQRDNGYQPNYHAVNIVGYSNAQGVDYWIVRNSWDTNWGDNGYGYFAANIDLMMIEEYPYVVIL
# Assays:
# [1] = test system: monocyte derived DC; test: Flow cytometric analysis of DC surface molecules; format: cell-based, human; conditions: for Surface expression of CD80, CD86, CD40, HLA-DR, CD83 on DC: immature DC of allergics, 48 h incubation
# Protocol: (§1) Monocyte derived DC were generated as previously described (Weigt et al. Immunobiol. 207, 223-233 (2003). Briefly, blood was centrifuged to remove platelets, diluted and layered over Ficoll-Paque (Amersham Pharmacia, Uppsala, Sweden). After density gradient centrifugation, PBMC were collected, and monocytes were enriched using the MACS system and anti-CD14 beads (Miltenyi Biotec, Bergisch Gladbach, Germany). The CD14 positive fraction (monocytes) was cultured in the serum-free medium X-VIVO 15 supplemented with 100 U/ml penicillin and […] streptomycin (all BioWhittaker, Verviers, Belgium). The CD14 negative fraction containing the lymphocytes was cryopreserved in 90% FCS (GIBCO, Eggenstein-Leopoldhafen, Germany) and 10% DMSO (SIGMA, Taufkirchen, Germany). On day 1 and day 5 after isolation, 800 U/m of recombinant GM-CSF and 500 U/ml of recombinant IL-4 (Strathmann Biotec, Hamburg, Germany) were added to the monocyte culture to induce DC.
# (§2) On day 5 of the culture, DC were pulsed with affinity purified house dust mite allergen adjusted to a concentration of 100 ng/ml of DerP1 or with PBS as control. […] The respective optimal concentrations were experimentally determined using the highest expression of stimulatory cell surface molecules as read-out system. The substances were incubated on the cells for 48 hours.
# For immunophenotyping, an aliquot of DC was harvested after 7 days of culture and washed in PBS supplemented with 0.5% FCS and 10 mM NaN3 (SIGMA, Taufkirchen, Germany). After 30-minute-incubation at 4° C. with one of the following combination of labeled murine mAbs (isotype control FITC/isotype control PE, anti-CD83 FITC, anti-CD86 FITC/anti-CD40 PE, anti-CD 80 FITC/anti-HLA-DR PE, anti-CD1a FITC/anti-CD14 PE (all BD Biosciences, Heidelberg, Germany)) cells were washed and analysed on a EPICS XL-MCL (Beckmann Coulter, Krefeld, Germany) flow cytometer. Data were processed with the Expo 32 cytometer software (Beckmann Coulter). The expression of the cell surface molecules was shown in 1 parameter Histograms (FIG. 2) or evaluated using the median of fluorescence intensity (MFI) after subtraction of the values of the isotype control (Tab. 1).
# [2] = test system: monocyte derived DC; test: Cytokines in DC culture supernatant (ELISA); format: cell-based, human; conditions: day 7 of culture; for IL-10 production in DC culture supernatant / IL-12p70 production in DC culture supernatant: compared to untreated DC
# Protocol: as §1, §2
# (§3) Cytokine concentrations were determined in DC culture supernatant collected on day 7 (TNF-α, IL-10, IL-12) and in the supernatant of the coculture of DC and autologous lymphocytes collected on day 10 (IFN-γ, IL-4). Duo-Set ELISA kits for the detection of IL-12p70, IL-10, TNF, IFN-γ, IL-4 and IL-5 were purchased (R&D Systems, Wiesbaden, Germany) and performed according to the manufacturers instructions.
# [3] = test system: autologous lymphocytes; test: Cytokines in coculture of pretreated DC with autologous lymphocytes (ELISA); format: cell-based, human; conditions: for IFN-g in coculture supernatant / IL-4 in coculture supernatant: DC:lymphocytes 1:3; for IFN-g concentration in coculture supernatant / IL-4 concentration in coculture supernatant: DerP1 pulsed DC, day 3 of coculture
# Protocol: as §2, §3
# (§4) A portion of DC was used for coculture experiments with autologous lymphocytes from day 7 to day 13. To remove free stimulants, DC were harvested and washed twice. The cells were titrated in fresh medium in fresh round-bottom microtiterplates. 1×10^5 vital cryopreserved autologous lymphocytes were added at ratios of DC to lymphocytes from 1:3 to 1:2187 in a final volume of 200 μl in serum-free XVIVO-15. No further stimulants were given.
# [4] = test system: autologous lymphocytes; test: Proliferation assay (3H-thymidine) in coculture of DC and autologous lymphocytes; format: cell-based, human; conditions: DC of allergics, allergen pulsed, 3H-thymidine day 12 for 18 hours
# Protocol: as §4
# The coculture was pulsed with 5 μCi/ml ^3H-thymidine (Amersham Buchler, Braunschweig, Germany) on day 12. After 18 hours, the cells were harvested on filtermats (Canberra-Packard, Dreieich, Germany). After drying, 20 μl of liquid scintillator (Can berra-Packard) were added and the plates were sealed. Counts per minute were determined on a Topcount Microplate Scintillation Counter (Can berra-Packard).
# [5] = test system: Balb/c mice; test: Cytokines in BALF of OVA-sensitized and challenged mice (ELISA); format: in vivo, mouse; conditions: i.t. treatment day 27 (20 ng MALP-2, 10^4 U IFN-γ); 24 h after last allergen challenge
# Protocol: Female Balb/c mice (Charles River, Sulzfeld, Germany) were used at the age of 6-8 weeks In all experiments. They were fed with ovalbumin-free laboratory food and tap water ad libitum and held in a regular 12 h dark/light cycle at a temperature of 22° C. Before experimental start, mice were acclimated for a period of 7 days.
# (§5) Animals were sensitized and challenged as previously described (Glaab, T., A. Daser, A. Braun, U. Neuhaus-Steinmetz, H. Fabel, Y. Alarie, and H. Renz. 2001. Am. J. Physiol Lung Cell Mol. Physiol 280:L565-L573). Briefly, 10 μg ovalbumin (OVA, grade VI, Sigma, Müchen, Germany) was adsorbed to 1 mg Imject Alum (Pierce, Rockford, USA) in a total volume of 200 μl 0.9% NaCl solution and intraperitonealy injected three times on days 0, 14 and 21. Negative controls were injected with the solution lacking ovalbumin. All groups were subjected to inhalative allergen challenge on days 28 and 29. OVA-aerosols (grade V, Sigma) with a mean mass diameter of 1.49 μm were generated from a solution of 1 mg/ml OVA in 0.9% NaCl using a modified Pad Master system (Pari Werke, Sternberg, Germany) for 20 min. A lung deposition of approximately 8 μg OVA per mice in each session was calculated by a respiratory minute volume of 35 ml/min an a deposition factor of 0.15 as brought forward by Raabe et al. (Raabe, O. G., J. E. Bennick, M. E. Light, C. H. Hobbs, R. L. Thomas, and M. I. Tillery. 1973. Toxicol. Appl. Pharmacol. 26:264-273). 3 gives the test groups.
# (§6) The trachea was canulated under direct vision, and a total volume of 50 μl containing the substances was instillated using a syringe.
# (§7) Mice were killed with an i.p. injected overdose of pentobarbital-Na (Menial, Halbergmoos, Germany) after the lung function. In a satellite group, mice were left untouched after the last allergen challenge and kept for another 7 days. Afterwards, they were dissected in the same way as the main groups as follows. Blood was obtained via punction of the vena cava. Red blood cells were lysed by incubation with 0.9% NH4Cl (Sigma) in H2O for 10 min, white blood cells were automatically counted using an AcT8 counter (Beckman Coulter, Krefeld, Germany) and cytospins were prepared for differential cell count. The trachea was canulated and broncho-alveolar lavage (BAL) was performed with 0.8 ml ice cold saline two times. BAL cells were separated by centrifugation, counted and cytospins were prepared as described above. The BAL fluid (BALF) was aliquoted, shock frozen in liquid nitrogen and stored at −80° C. until the determination of cytokines. After BAL, the lungs were filled with Tissue-Tek O.C.T. (Sakura Finetek, Zoeterwoude, Netherlands) diluted 1:2 in PBS and the trachea was ligated. Next, the right lungs were excised, subsequently shock frozen in liquid nitrogen and stored at −80° C. for histology.
# Duo-Set ELISA kits for the detection of IL-4, IL-5, IL-13 and IL-12p70 in the BAL supernatant were used (R&D Systems, Wiesbaden, Germany) according to the manufacturer's instructions.
# [6] = test system: Balb/c mice; test: Differential cell count of BAL and blood, OVA-sensitized mice; format: in vivo, mouse; conditions: i.t. treatment day 27; 24 h after last allergen challenge
# Protocol: as §5, §6, §7
# Cytospins were stained applying the Pappenheim method according to standard protocols. […] 300 cells of each sample were determined, and absolute counts of macrophages, lymphocytes, eosinophilic and neutrophilic granulocytes were calculated.
# [7] = test system: Balb/c mice; test: Lung function measurement: airway hyperreactivity to methacholine, head-out body plethysmography; format: in vivo, mouse; conditions: OVA-sensitized mice, 72 h after i.t. treatment, 24 h after last allergen challenge; mean±SEM
# Protocol: as §5, with “OVA-aerosols (grade V, Sigma) with a mean mass diameter of 1.49 μm were generated from a solution of 1 mg/ml OVA in 0.9% NaCl using a modified Pad Master system (Pari Werke, Sternberg, Germany) for 20 min.” left out, “3 gives the test groups.” left out
# 24 hours after the last allergen challenge, airway hyperreactivity to methacholine (Mch) was determined in non-anaesthesized spontaneously breathing animals using head-out body plethysmography, as described before (Glaab, T., A. Daser, A. Braun, U. Neuhaus-Steinmetz, H. Fabel, Y. Alarie, and H. Renz. 2001. Am. J. Physiol Lung Cell Mol. Physiol 280:L565-L573). […] Respiratory signals were analyzed using the Hem 3.4 system (Notocord systems S. A., Crossy-sur-Seine, F).
# [8] = test system: autologous lymphocytes; conditions: DC treated in vitro; Weigt et al. 2003; cited from earlier work
# [9] = DC of allergics, 48 h treatment, DerP1 100 ng/ml, MALP-2 100 pg/ml, IFN-g 5000 U/ml, mean±SEM of 6 experiments
# [10] = allergic donors, pretreated DC:lymphocytes 1:3, mean±SEM of 6 experiments
Molecule,"Surface expression of CD80, CD86, CD40, HLA-DR, CD83 on DC [1]",TNF production in DC culture supernatant [2],IL-10 production in DC culture supernatant [2],IL-12p70 production in DC culture supernatant [2],IFN-g in coculture supernatant ([3]; allergic donors),IL-4 in coculture supernatant ([3]; allergic donors),Lymphocyte proliferation [4],IL-4 in BALF [5],IL-5 and IL-13 in BALF [5],IL-12p70 in BALF [5],Eosinophils in BAL [6],Number of BAL lymphocytes [6],ED50: concentration of Mch needed to decrease the EF50 to 50% of baseline [7] [mg/ml Mch],further results
"IFN-γ: interferon gamma, IFNγ receptor agonist (Strathmann Biotec)",upregulated only HLA-DR,comparable moderate release,did not influence,did not influence,heightened lymphopcyte IFN-g production,little effect on IL-4,increased proliferation,did not affect IL-4,reduced the levels of IL-5 and IL-13,failed to induce IL-12p70,raised the eosinophil counts even further,increased,17.67±3.05,
"macrophage activating lipopeptide-2 [MALP-2, reference compound]","significantly upregulated CD 40, CD 80, CD 83 and CD86",comparable moderate release,induced IL-10,no effect on IL-12,lowered IFN-g less compared to allergen pulsed DC,reduced IL-4 to control levels,exceeded by MALP-2,reduce all Th2-markers to the level of the unsensitized negative control,reduce all Th2-markers to the level of the unsensitized negative control,did not amplify IL-12p70,raised the eosinophil counts even further,increased,20.13±1.36,Polarization of lymphocytes into T-helper (Th-1) cells [8]: no significant polarization; Proliferation of autologous lymphocytes [8]: marked proliferation
B1,no effect on the expression of the surface molecules,low levels,did not influence,did not influence,reduction of IFN-g,increase in IL-4,only a very weak effect on lymphocyte proliferation,,,,,,,"CD1a median fluorescence intensity [1, 9]: 265.2 +/− 106.8; CD 14 median fluorescence intensity [1, 9]: 17.6 +/− 9.8; CD 40 median fluorescence intensity [1, 9]: 733 +/− 160.5; CD 80 median fluorescence intensity [1, 9]: 47.2 +/− 18.9; CD 83 median fluorescence intensity [1, 9]: 47.3 +/− 9^; CD 86 median fluorescence intensity [1, 9]: 159.8 +/− 29.3; HLA-DR median fluorescence intensity [1, 9]: 426.9 +/− 131.9; IFN-γ production in coculture [3, 10]: 3.6 +/− 2.1; IL-4 production in coculture [3, 10]: 13.6 +/− 7.3; IFN-g concentration in coculture supernatant ([3]; allergics, ±SEM): 3.6 pg/mL; IL-4 concentration in coculture supernatant ([3]; allergics, ±SEM): 13.6 pg/m; IL-4 concentration in coculture supernatant ([3]; healthy donors): below the detection limit; IFN-g concentration in coculture supernatant ([3]; non-allergics (healthy donors), ±SEM): 8.7 pg/m"
